How the values were obtained:
[1] = molecular target: Serine/threonine-protein kinase pim-1 (Homo sapiens) (UniProt P11309); experiment: Inhibition of PIM1 (unknown origin) at 10 uM incubated for 30 mins in presence of [gamma-33P]ATP by multidrop micro reagent based assay relative to control; values are per cent of control
[2] = molecular target: T1, Serine/threonine-protein kinase BRSK2 (Homo sapiens) (UniProt Q8IWQ3); experiment: Inhibition of BRSK2 (unknown origin) at 10 uM incubated for 30 mins in presence of [gamma-33P]ATP by multidrop micro reagent based assay relative to control
T1 sequence (whole entry): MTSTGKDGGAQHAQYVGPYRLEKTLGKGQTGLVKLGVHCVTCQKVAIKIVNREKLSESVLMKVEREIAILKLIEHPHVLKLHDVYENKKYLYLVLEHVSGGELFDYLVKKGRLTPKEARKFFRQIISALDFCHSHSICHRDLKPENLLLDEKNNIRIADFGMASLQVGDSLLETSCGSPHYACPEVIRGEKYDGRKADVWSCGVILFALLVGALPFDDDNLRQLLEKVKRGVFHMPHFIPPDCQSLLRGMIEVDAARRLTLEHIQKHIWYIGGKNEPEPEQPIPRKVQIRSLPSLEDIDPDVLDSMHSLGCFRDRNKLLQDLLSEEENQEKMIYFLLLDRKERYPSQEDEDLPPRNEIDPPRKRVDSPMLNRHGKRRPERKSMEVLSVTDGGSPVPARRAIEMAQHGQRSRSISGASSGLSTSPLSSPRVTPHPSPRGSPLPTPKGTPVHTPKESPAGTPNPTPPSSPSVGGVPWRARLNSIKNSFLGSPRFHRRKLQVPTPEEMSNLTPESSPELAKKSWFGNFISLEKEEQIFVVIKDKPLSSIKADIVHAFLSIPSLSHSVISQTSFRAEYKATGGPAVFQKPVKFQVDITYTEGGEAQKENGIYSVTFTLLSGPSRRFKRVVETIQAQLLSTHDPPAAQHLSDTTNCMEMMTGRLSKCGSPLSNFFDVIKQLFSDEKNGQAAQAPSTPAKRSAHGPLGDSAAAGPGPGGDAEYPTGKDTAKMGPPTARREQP

[3] = molecular target: Homeodomain-interacting protein kinase 2 (Homo sapiens) (UniProt Q9H2X6); experiment: Inhibition of HIPK2 (unknown origin) at 10 uM incubated for 30 mins in presence of [gamma-33P]ATP by multidrop micro reagent based assay relative to control; values are per cent of control
[4] = molecular target: Mitogen-activated protein kinase 14 (Homo sapiens) (UniProt Q16539); experiment: Inhibition of p38alpha MAPK (unknown origin) at 10 uM incubated for 30 mins in presence of [gamma-33P]ATP by multidrop micro reagent based assay relative to control; values are per cent of control
[5] = molecular target: Receptor tyrosine-protein kinase erbB-4 (Homo sapiens) (UniProt Q15303); experiment: Inhibition of HER4 (unknown origin) at 10 uM incubated for 30 mins in presence of [gamma-33P]ATP by multidrop micro reagent based assay relative to control; values are per cent of control
[6] = molecular target: Serine/threonine-protein kinase pim-2 (Homo sapiens) (UniProt Q9P1W9); experiment: Inhibition of PIM2 (unknown origin) at 10 uM incubated for 30 mins in presence of [gamma-33P]ATP by multidrop micro reagent based assay relative to control; values are per cent of control
[7] = molecular target: Serine/threonine-protein kinase PAK 4 (Homo sapiens) (UniProt O96013); experiment: Inhibition of PAK4 (unknown origin) at 1 uM incubated for 30 mins in presence of [gamma-33P]ATP by multidrop micro reagent based assay relative to control
[8] = molecular target: SRSF protein kinase 1 (Homo sapiens) (UniProt Q96SB4); experiment: Inhibition of SRPK1 (unknown origin) at 1 uM incubated for 30 mins in presence of [gamma-33P]ATP by multidrop micro reagent based assay relative to control; values are per cent of control
[9] = molecular target: T2, Ephrin type-B receptor 3 (Homo sapiens) (UniProt P54753); experiment: Inhibition of EPH-B3 (unknown origin) at 1 uM incubated for 30 mins in presence of [gamma-33P]ATP by multidrop micro reagent based assay relative to control
T2 sequence (whole entry): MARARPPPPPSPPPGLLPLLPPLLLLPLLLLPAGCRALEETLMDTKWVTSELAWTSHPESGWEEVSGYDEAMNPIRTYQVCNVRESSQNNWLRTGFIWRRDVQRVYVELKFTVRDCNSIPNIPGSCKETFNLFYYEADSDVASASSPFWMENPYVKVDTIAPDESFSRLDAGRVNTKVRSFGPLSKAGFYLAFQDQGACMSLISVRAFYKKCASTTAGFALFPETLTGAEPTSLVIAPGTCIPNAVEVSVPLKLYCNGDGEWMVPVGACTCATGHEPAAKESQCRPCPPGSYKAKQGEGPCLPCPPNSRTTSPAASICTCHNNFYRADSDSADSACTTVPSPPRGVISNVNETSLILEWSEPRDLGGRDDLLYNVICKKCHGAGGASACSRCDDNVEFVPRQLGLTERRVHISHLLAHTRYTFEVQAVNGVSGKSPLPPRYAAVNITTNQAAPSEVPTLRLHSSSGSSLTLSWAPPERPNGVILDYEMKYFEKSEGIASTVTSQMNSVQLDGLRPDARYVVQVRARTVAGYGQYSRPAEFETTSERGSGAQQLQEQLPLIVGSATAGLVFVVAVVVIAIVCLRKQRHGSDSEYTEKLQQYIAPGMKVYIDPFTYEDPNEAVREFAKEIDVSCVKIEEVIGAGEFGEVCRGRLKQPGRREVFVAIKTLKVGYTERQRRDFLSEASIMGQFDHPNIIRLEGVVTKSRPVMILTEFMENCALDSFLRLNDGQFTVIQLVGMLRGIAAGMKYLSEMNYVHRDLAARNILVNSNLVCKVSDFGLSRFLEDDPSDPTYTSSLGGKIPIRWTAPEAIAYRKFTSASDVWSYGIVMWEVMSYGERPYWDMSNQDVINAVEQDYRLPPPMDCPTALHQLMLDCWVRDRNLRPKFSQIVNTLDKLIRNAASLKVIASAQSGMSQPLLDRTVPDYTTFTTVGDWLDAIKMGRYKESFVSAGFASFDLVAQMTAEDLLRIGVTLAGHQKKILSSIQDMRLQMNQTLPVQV

[10] = molecular target: T1, Serine/threonine-protein kinase BRSK2 (Homo sapiens); experiment: Inhibition of BRSK2 (unknown origin) at 1 uM incubated for 30 mins in presence of [gamma-33P]ATP by multidrop micro reagent based assay relative to control; values are per cent of control
[11] = molecular target: Mitogen-activated protein kinase 1 (Homo sapiens) (UniProt P28482); experiment: Inhibition of ERK2 (unknown origin) at 1 uM incubated for 30 mins in presence of [gamma-33P]ATP by multidrop micro reagent based assay relative to control; values are per cent of control

Sequence of SRSF protein kinase 1 (Homo sapiens) (Q96SB4 whole entry): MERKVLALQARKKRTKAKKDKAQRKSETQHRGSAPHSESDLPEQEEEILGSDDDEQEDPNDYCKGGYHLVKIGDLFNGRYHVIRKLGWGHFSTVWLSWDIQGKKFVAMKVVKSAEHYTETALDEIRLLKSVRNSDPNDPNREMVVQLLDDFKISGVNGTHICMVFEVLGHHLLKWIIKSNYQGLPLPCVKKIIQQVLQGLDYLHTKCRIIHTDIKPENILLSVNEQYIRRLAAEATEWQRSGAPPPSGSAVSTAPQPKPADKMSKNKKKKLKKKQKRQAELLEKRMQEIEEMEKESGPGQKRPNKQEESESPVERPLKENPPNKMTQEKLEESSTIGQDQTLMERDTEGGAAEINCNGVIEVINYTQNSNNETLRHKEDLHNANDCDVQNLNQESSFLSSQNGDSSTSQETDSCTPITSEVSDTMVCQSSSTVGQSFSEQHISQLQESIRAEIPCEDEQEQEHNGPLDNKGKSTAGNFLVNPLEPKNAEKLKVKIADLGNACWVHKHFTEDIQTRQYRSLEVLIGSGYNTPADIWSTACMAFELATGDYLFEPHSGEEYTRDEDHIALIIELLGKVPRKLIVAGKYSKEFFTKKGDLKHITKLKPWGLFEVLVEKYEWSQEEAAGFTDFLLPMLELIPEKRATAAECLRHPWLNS
Sequence of Serine/threonine-protein kinase PAK 4 (Homo sapiens) (O96013 whole entry, looked up): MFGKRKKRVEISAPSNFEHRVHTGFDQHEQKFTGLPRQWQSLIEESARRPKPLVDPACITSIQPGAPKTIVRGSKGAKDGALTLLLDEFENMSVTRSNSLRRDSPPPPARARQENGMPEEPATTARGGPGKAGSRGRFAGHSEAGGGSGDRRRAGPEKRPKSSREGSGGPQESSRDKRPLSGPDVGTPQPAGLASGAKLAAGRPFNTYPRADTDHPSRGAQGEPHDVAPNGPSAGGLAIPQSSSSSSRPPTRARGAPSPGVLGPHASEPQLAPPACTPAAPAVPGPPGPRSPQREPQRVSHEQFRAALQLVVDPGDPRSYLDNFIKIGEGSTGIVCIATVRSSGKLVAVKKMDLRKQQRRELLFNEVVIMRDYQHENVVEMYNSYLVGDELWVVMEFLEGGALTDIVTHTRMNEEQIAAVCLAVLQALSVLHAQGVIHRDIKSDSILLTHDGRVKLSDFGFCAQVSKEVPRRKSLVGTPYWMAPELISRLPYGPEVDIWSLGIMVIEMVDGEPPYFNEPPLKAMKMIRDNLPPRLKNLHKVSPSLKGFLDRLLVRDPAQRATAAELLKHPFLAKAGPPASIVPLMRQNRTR
Sequence of Serine/threonine-protein kinase pim-2 (Homo sapiens) (Q9P1W9 whole entry, looked up): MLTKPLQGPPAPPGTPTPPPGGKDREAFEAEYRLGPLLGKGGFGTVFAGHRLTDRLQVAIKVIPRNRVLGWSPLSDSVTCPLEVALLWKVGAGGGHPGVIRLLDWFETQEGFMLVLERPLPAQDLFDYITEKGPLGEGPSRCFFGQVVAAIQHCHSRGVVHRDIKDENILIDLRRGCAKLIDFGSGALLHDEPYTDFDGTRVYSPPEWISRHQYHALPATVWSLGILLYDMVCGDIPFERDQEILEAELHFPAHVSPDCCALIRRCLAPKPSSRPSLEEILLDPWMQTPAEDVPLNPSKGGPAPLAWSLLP
Sequence of Serine/threonine-protein kinase pim-1 (Homo sapiens) (P11309 whole entry, looked up): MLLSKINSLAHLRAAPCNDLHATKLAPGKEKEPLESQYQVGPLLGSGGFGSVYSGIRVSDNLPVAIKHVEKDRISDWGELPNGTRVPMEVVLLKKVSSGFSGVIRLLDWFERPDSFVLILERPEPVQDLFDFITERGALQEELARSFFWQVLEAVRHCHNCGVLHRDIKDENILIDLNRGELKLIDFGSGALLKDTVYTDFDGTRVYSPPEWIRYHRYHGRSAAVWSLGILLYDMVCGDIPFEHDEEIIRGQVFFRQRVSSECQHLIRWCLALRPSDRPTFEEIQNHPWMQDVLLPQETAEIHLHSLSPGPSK
Sequence of Homeodomain-interacting protein kinase 2 (Homo sapiens) (Q9H2X6 whole entry, looked up): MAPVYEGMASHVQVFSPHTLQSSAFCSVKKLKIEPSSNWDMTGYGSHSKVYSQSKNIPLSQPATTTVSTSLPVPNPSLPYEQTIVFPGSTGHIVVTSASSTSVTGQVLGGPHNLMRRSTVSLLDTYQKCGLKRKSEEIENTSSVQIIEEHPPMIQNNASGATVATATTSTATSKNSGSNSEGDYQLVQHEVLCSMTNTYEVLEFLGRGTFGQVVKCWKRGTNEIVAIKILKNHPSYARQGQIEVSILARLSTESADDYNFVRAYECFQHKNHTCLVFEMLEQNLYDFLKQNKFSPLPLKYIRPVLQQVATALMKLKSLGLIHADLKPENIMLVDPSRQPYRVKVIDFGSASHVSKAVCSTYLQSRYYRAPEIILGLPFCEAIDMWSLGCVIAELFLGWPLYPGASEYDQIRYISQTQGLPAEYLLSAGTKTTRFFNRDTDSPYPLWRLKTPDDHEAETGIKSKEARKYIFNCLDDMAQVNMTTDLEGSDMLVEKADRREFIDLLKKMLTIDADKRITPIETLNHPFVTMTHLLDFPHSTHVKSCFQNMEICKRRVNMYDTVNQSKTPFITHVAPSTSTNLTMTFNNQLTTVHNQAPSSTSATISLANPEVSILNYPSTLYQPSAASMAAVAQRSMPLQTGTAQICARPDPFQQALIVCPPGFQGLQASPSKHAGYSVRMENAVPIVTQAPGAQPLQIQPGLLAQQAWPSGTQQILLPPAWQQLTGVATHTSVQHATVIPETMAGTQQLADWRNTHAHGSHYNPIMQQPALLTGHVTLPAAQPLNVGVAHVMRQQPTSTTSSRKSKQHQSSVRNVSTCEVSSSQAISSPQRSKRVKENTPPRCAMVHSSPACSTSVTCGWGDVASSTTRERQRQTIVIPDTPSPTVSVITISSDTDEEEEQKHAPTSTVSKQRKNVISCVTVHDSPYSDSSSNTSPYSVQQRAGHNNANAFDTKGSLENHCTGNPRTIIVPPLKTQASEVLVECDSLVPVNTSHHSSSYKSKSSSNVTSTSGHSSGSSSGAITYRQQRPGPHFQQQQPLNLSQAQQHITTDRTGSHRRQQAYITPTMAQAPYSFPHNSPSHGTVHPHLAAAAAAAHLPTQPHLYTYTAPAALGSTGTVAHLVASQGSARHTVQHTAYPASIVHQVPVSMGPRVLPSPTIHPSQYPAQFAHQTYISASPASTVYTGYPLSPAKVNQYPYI
Sequence of Receptor tyrosine-protein kinase erbB-4 (Homo sapiens) (Q15303 whole entry): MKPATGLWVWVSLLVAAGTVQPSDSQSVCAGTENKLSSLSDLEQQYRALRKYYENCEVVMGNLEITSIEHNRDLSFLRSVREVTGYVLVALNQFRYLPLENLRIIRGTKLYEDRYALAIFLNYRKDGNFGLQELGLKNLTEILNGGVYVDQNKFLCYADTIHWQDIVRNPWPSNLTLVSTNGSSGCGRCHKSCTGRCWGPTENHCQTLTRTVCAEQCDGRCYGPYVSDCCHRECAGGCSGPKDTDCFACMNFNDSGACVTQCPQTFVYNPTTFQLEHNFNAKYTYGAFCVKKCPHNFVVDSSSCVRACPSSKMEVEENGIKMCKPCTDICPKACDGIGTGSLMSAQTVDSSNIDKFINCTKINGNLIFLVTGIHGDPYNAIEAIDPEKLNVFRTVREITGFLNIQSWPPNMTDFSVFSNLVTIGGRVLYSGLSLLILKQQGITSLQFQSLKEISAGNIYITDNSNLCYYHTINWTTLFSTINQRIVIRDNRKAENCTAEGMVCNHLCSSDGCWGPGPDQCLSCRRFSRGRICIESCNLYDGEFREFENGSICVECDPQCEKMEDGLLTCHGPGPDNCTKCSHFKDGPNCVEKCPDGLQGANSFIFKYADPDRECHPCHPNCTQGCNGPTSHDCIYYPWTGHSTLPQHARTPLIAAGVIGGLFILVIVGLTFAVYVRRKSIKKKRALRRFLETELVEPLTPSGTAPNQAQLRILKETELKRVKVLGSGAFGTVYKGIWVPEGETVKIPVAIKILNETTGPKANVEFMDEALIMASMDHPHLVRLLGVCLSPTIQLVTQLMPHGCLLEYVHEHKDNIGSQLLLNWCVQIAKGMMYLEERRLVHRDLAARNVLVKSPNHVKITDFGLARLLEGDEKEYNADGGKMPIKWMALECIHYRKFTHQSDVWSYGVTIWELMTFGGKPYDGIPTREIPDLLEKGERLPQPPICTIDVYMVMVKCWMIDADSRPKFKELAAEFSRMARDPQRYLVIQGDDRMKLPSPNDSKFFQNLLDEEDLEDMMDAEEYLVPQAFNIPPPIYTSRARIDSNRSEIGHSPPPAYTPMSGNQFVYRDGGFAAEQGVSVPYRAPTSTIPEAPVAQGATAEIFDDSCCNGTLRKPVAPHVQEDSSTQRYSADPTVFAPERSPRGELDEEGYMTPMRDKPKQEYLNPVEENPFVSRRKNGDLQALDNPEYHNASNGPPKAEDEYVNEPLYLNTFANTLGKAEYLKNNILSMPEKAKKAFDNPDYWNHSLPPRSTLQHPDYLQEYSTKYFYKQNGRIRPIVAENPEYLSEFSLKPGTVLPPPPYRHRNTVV
Sequence of Mitogen-activated protein kinase 14 (Homo sapiens) (Q16539 whole entry): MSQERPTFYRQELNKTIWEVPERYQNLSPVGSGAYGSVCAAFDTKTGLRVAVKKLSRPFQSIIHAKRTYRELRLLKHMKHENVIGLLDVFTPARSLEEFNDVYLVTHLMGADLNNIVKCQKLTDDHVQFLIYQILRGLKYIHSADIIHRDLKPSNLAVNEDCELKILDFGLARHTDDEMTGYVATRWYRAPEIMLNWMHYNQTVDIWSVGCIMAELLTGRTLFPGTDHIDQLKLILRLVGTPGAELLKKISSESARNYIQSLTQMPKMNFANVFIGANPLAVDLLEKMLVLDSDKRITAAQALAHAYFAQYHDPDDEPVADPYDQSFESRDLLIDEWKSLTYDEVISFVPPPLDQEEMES

SMILES | residual activity [1] [%] | inhibition [2] [%] | residual activity [3] [%] | residual activity [4] [%] | residual activity [5] [%] | residual activity [6] [%] | residual activity [7] [%] | residual activity [8] [%] | inhibition [9] [%] | residual activity [10] [%] | residual activity [11] [%]
C[C@@H](N)[C@H]1CC[C@H](C(=O)Nc2ccncc2)CC1 | 94 | 43 | 104 | 103 | 69 | 102 | – | – | – | – | –
Cc1cncc2cccc(S(=O)(=O)N3CCCNC[C@@H]3C)c12 | – | – | – | – | – | – | 99 | 125 | 69 | 17 | –
O=S(=O)(c1cccc2cnccc12)N1CCCNCC1 [FASUDIL] | 84 | 38 | 127 | 108 | 129 | 111 | – | – | – | – | –
CCn1c(-c2nonc2N)nc2cnc(Oc3cccc(NC(=O)c4ccc(OCCN5CCOCC5)cc4)c3)cc21 [GSK-269962A] | – | – | – | – | – | – | – | – | – | – | 105
CC1=C(C(=O)Nc2cc3cn[nH]c3cc2F)C(c2ccc(C(F)(F)F)cc2)CC(=O)N1 (configuration not stated) | – | – | – | – | – | – | 95 | 71 | 87 | 91 | 94
